Some test systems named below: HCC-2998 colon; HCT-15 colon; MDA-MB-231 breast; SF-268 CNS; SNB-19 CNS; TK-10 renal; U251 CNS; UACC-257 melanoma; A498 renal; IGROV1 ovarian.
Holding throughout (assay): NCI anticancer screen, dose series, 48 h

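Cultured in 96-well plates, cells were exposed to test compound for 48 hours across five concentrations. GI50 is the concentration that inhibits growth by half. TGI is the concentration that stops growth completely.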 A value given as a limit tells only on which side of the number the result lay.

Turning to `C=CC1CC12C(=O)C1OC2(C)C2C(=O)c3c(O)cccc3C(=O)C12` (configuration not stated), the GI50 with HCC-2998 colon was 31.1 µM; with HCT-15 colon, 19.1 µM; with MDA-MB-231 breast, 18.7 µM; in the test on SF-268 CNS, 30.5 µM; in the test on SNB-19 CNS, 87.8 µM; with TK-10 renal, 39.7 µM. In addition, the GI50 was 28.7 µM in the test with U251 CNS and 33.3 µM in the test on UACC-257 melanoma. Also, the TGI with HCC-2998 colon is > 100 µM; with HCT-15 colon, 44.6 µM; with MDA-MB-231 breast, 59 µM; in the test on SF-268 CNS, > 100 µM; with SNB-19 CNS, > 100 µM; in the test with TK-10 renal, > 100 µM. In addition, the TGI with U251 CNS was 77.7 µM; with UACC-257 melanoma, > 100 µM.
As for `CCCCCCCC(=O)SCC/C=C/[C@@H]1CC(=O)NCc2cccc(n2)C2=N[C@@](C)(CS2)C(=O)N[C@@H](C(C)C)C(=O)O1`, the GI50 in the test with A498 renal was 0.0202 µM; in the test with HCC-2998 colon it was 0.0528 µM; with HCT-15 colon it was 0.249 µM; in the test on IGROV1 ovarian, 0.0263 µM; in the test with MDA-MB-231 breast, 0.119 µM; in the test with SF-268 CNS, 0.0986 µM. Besides, the GI50 with SNB-19 CNS is 0.191 µM; in the test on TK-10 renal it was 0.0262 µM; in the test with U251 CNS it was 0.0802 µM. Besides, the TGI in the test with A498 renal is 0.111 µM; with HCC-2998 colon it was 0.324 µM; with HCT-15 colon, > 33.3 µM; in the test on IGROV1 ovarian it was 0.525 µM; in the test on MDA-MB-231 breast it was > 19.8 µM; with SF-268 CNS, > 28 µM. Besides, the TGI in the test on SNB-19 CNS was > 33.3 µM; in the test with TK-10 renal it was 0.361 µM; with U251 CNS, 0.782 µM.
Take `O=C1/C(=N/N=C(c2ccccc2)c2ccccc2)c2ccccc2-c2ccccc21`: the TGI with HCT-15 colon, in the test with IGROV1 ovarian, in the test on MDA-MB-231 breast, in the test with SF-268 CNS, in the test with SNB-19 CNS and in the test on TK-10 renal was > 100 µM in each case. Also, the TGI with U251 CNS and in the test with UACC-257 melanoma was > 100 µM throughout.
Take `CN(C)c1ccc(/C=N/NC(=O)CSc2nc3sc4c(c3c(=O)n2-c2ccccc2)CCCCC4)cc1`: the GI50 was 7.5 µM in the test with HCC-2998 colon; 3.96 µM in the test on HCT-15 colon; 3.08 µM in the test on IGROV1 ovarian; 2.89 µM with MDA-MB-231 breast; 11.5 µM in the test with SF-268 CNS; 6.66 µM in the test with SNB-19 CNS. For the same compound, the GI50 is 4.16 µM in the test with TK-10 renal, 3.2 µM in the test with U251 CNS and > 100 µM in the test with UACC-257 melanoma. Further, the TGI in the test on HCC-2998 colon is > 100 µM; with HCT-15 colon, > 100 µM; in the test on IGROV1 ovarian it was > 100 µM; in the test with MDA-MB-231 breast it was 18 µM; with SF-268 CNS, > 100 µM; in the test with SNB-19 CNS, 80.9 µM. The results for the TGI in the test on TK-10 renal, with U251 CNS and with UACC-257 melanoma were > 100 µM, 17.1 µM and > 100 µM, respectively.
Regarding `COc1ccc(-c2cnc(SCC(=O)c3c(C)n(C)n(-c4ccccc4)c3=O)n2-c2ccc(OC)cc2)cc1`, the GI50 with HCC-2998 colon is 44.9 µM; with HCT-15 colon, > 50 µM; in the test with IGROV1 ovarian it was > 50 µM; in the test with MDA-MB-231 breast, > 50 µM; in the test with SF-268 CNS it was > 50 µM; in the test on SNB-19 CNS it was > 50 µM. In addition, the GI50 in the test on TK-10 renal, in the test with U251 CNS and with UACC-257 melanoma was > 50 µM throughout. The TGI in the test with HCC-2998 colon, with HCT-15 colon, in the test on IGROV1 ovarian, in the test with MDA-MB-231 breast, with SF-268 CNS and in the test with SNB-19 CNS was > 50 µM in each case. The TGI with TK-10 renal, in the test on U251 CNS and with UACC-257 melanoma was > 50 µM throughout.
`CC[C@@]1(O)C(=O)OCc2c1cc1n(c2=O)Cc2cc3c([N+](=O)[O-])c(O)ccc3nc2-1`: the GI50 in the test with A498 renal was 0.915 µM; in the test with HCC-2998 colon, 2.02 µM; in the test with HCT-15 colon it was 2.71 µM; with IGROV1 ovarian it was 1.04 µM; in the test on SF-268 CNS, 0.073 µM; in the test with SNB-19 CNS, 0.0661 µM. The GI50 is 19.5 µM in the test on TK-10 renal, 0.0405 µM in the test with U251 CNS and 1.19 µM in the test on UACC-257 melanoma. Besides, the TGI in the test on A498 renal was 5.66 µM; in the test on HCC-2998 colon it was 13.1 µM; with HCT-15 colon, > 100 µM; in the test on IGROV1 ovarian, 17.3 µM; in the test with SF-268 CNS it was > 22.3 µM; with SNB-19 CNS, > 27.8 µM. Moreover, the TGI with TK-10 renal is > 85.6 µM; in the test on U251 CNS it was 1.22 µM; in the test with UACC-257 melanoma it was 16 µM.
`COc1cc(/C=C/C(=O)c2ccc(F)cc2)ccc1OCCCCOc1cc2c(cc1OC)C(=O)N1CCCC1C=N2` (configuration not stated): the GI50 with A498 renal was 0.882 µM; in the test on HCC-2998 colon, 0.674 µM; with HCT-15 colon, 1.07 µM; in the test with IGROV1 ovarian, 1.83 µM; in the test on MDA-MB-231 breast it was 1.27 µM; with SF-268 CNS, 1.03 µM. In addition, the GI50 is 1.04 µM with SNB-19 CNS, 1.7 µM in the test on TK-10 renal and 0.704 µM with U251 CNS. Further, the TGI in the test on A498 renal was 5.48 µM; with HCC-2998 colon it was 9.61 µM; in the test on HCT-15 colon, > 28.2 µM; in the test with IGROV1 ovarian, 3.59 µM; in the test on MDA-MB-231 breast it was > 21.2 µM; with SF-268 CNS, 12.5 µM. Besides, the TGI in the test on SNB-19 CNS was > 19.9 µM; in the test with TK-10 renal, 23.2 µM; with U251 CNS, 7.85 µM.
As to `Cc1cc(C)nc(NS(=O)(=O)c2ccc(Nc3nc4nc(NCc5ccccc5)nc(-c5ccc(O)cc5)c4c(=O)[nH]3)cc2)n1`, the GI50 is 24.5 µM in the test with A498 renal; > 100 µM with HCC-2998 colon; 32.4 µM in the test with HCT-15 colon; 0.663 µM with IGROV1 ovarian; 29.6 µM in the test with MDA-MB-231 breast; 18 µM in the test on SF-268 CNS. Moreover, the GI50 in the test on SNB-19 CNS was 27.4 µM; with TK-10 renal, 28 µM; in the test with U251 CNS, 36.7 µM. Moreover, the TGI is > 100 µM in the test with A498 renal; > 100 µM in the test with HCC-2998 colon; > 100 µM in the test on HCT-15 colon; 7.52 µM in the test on IGROV1 ovarian; > 100 µM with MDA-MB-231 breast; > 100 µM in the test on SF-268 CNS. Besides, the TGI in the test with SNB-19 CNS, in the test with TK-10 renal and in the test on U251 CNS was > 100 µM throughout.

The values above are taken from PubChem BioAssay (NCI).
